# Literature values in US20210196801A1, “Starting Dose of PTH Conjugates” (Ascendis Pharma Bone Diseases A/S, priority 2018, published 2021).
# Like-named read-outs stand apart in the source and are kept apart here.
# Tests used:
# [1] = not given; remark: listed apart in the source
half-life (after IV administration),"half-life (after subcutaneous administration, due to prolonged absorption)",Molecule,half-life ([1]; IV),half-life ([1]; after subcutaneous administration)
about 5 minutes,~1 h,CC[C@H](C)[C@H](NC(=O)[C@H](CCC(=O)O)NC(=O)[C@H](CO)NC(=O)[C@@H](NC(=O)[C@@H](N)CO)C(C)C)C(=O)N[C@@H](CCC(N)=O)C(=O)N[C@@H](CC(C)C)C(=O)N[C@@H](CCSC)C(=O)N[C@@H](Cc1cnc[nH]1)C(=O)N[C@@H](CC(N)=O)C(=O)N[C@@H](CC(C)C)C(=O)NCC(=O)N[C@@H](CCCCN)C(=O)N[C@@H](Cc1cnc[nH]1)C(=O)N[C@@H](CC(C)C)C(=O)N[C@@H](CC(N)=O)C(=O)N[C@@H](CO)C(=O)N[C@@H](CCSC)C(=O)N[C@@H](CCC(=O)O)C(=O)N[C@@H](CCCN=C(N)N)C(=O)N[C@H](C(=O)N[C@@H](CCC(=O)O)C(=O)N[C@@H](Cc1c[nH]c2ccccc12)C(=O)N[C@@H](CC(C)C)C(=O)N[C@@H](CCCN=C(N)N)C(=O)N[C@@H](CCCCN)C(=O)N[C@@H](CCCCN)C(=O)N[C@@H](CC(C)C)C(=O)N[C@@H](CCC(N)=O)C(=O)N[C@@H](CC(=O)O)C(=O)N[C@H](C(=O)N[C@@H](Cc1cnc[nH]1)C(=O)N[C@@H](CC(N)=O)C(=O)N[C@@H](Cc1ccccc1)C(=O)O)C(C)C)C(C)C [Teriparatide],,
,,"Natpara: PTH(1-84), approved for once-daily subcutaneous injection in patients with hypoparathyroidism",about 5 minutes,about 3 hours
